System: umbilical cord-derived mesenchymal stem cells
Assay: surfactant cytotoxicity and cell growth, CCK-8 in transwell
Assay type: cell-based
Description: The toxicity of poloxamer (poloxamer 407, p407), sodium methyl cocoyl taurate (DIAPON K-SF), polyoxyethylene sorbitan monolaurate (Tween 20) or methylprednisolone, which are known as representative biocompatible surfactants, was confirmed.
Specifically, in the upper chamber in a transwell including a three-dimensional porous membrane, the surfactant p407, DIAPON K-SF or Tween 20 was respectively treated at 0, 0.5 1, 5 or 15% (v/v) and coated for 2 hours in the same manner as in [Example 2], and then, the umbilical cord-derived mesenchymal stem cells obtained in [Example 1] were seeded at 20,000 cells/cm^2. The cell growth medium was placed in the lower chamber and cultured for 3 days. On days 1, 2 and 3, the CCK-8 (Cat. CK04, DOJINDO) solution was added, and after 3 hours of reaction in a 37° C. CO2 incubator, absorbance was measured at 450 nm to analyze cytotoxicity (FIG. 4) and the degree of cell growth (FIG. 5).
Further, in a transwell including a three-dimensional porous membrane, the surfactant p407, methylprednisolone or Tween 20 was treated at a concentration of 4 mM in the upper chamber, and after coating for 2 hours in the same manner as in [Example 2], the umbilical cord-derived mesenchymal stem cells obtained in [Example 1] were seeded at 20,000 cell/cm^2. The cell growth medium was placed in the lower chamber and cultured for 3 days. On days 1, 2 and 3, the CCK-8 solution was added, and after 3 hours of reaction in a 37° C. CO2 incubator, absorbance was measured at 450 nm to analyze cytotoxicity (FIG. 6) and the degree of cell growth (FIG. 7).

Compound | cell proliferation, CCK-8 day 1 to day 3 (surfactant 4 mM coating (FIG. 7)) | cytotoxicity, CCK-8 day 1 (surfactant 4 mM coating, day 1 (FIG. 6)) | cell proliferation, CCK-8 day 1 to day 3 (surfactant 0, 0.5, 1, 5 or 15% (v/v) coating (FIG. 5)) | cytotoxicity, CCK-8 day 1 (surfactant 0, 0.5, 1, 5 or 15% (v/v) coating, day 1 (FIG. 4))
C[C@H]1C[C@@H]2[C@H]([C@@H](O)C[C@@]3(C)[C@H]2CC[C@]3(O)C(=O)CO)[C@@]2(C)C=CC(=O)C=C12 [methylprednisolone] | cells did not proliferate | toxic to cells | – | –
sodium methyl cocoyl taurate [DIAPON K-SF] | – | – | cells did not proliferate | toxic to cells

Source: patent US20230248776A1, “OSTEOBLASTS DIFFERENTIATED FROM MESENCHYMAL STEM CELLS AND COMPOSITION FOR TREATING BONE DISEASE COMPRISING SAME” (CEFO Co., Ltd., priority 2020, published 2023)
